# Test results: US9580432B2, “Fused pyrimidine compound or salt thereof” (TAIHO PHARMACEUTICAL CO., LTD., priority 2013, dated 2017)
# Tests used:
# A431 cells / TMD8 cells = test: Proliferation inhibitory activity against cell lines expressing BTK and EGFR (in vitro), comparison of selectivity; format: cell-based, human; conditions: ratio from GI50 (nM), 3 days culture, CELLTITER GLO
# Description: TMD8 cells, which are of a diffuse large B-cell lymphoma cell line expressing BTK, were suspended in RPMI1640 medium (manufactured by Life Technologies Corp.) containing 10% fetal bovine serum. A431 cells, which are of an EGFR-overexpressing, highly activated human epidermoid carcinoma cell line, were suspended in DMEM, high glucose medium (manufactured by Life Technologies Corp.) containing 10% fetal bovine serum. The cell suspensions were inoculated into each well of 384-well flat-bottomed microplates, and the cells were cultured for 1 day at 37° C. in an incubator containing 5% carbon dioxide gas. […] A DMSO solution of the test compounds was diluted with the medium used in the suspension of the each cells, and this was added to each of the wells of the cell culture plates such that the final concentration of DMSO would be 0.2%. The cells were further cultured for 3 days at 37° C. in an incubator containing 5% carbon dioxide gas. […] Proliferation inhibition ratio (%)=(C−T)/(C−C0)×100
# T: Luminescence intensity of a well in which the test compound was added
# C: Luminescence intensity of a well in which the test compound was not added
# C0: Luminescence intensity of a well measured before the addition of the test compound
# When a comparison is made between the cell proliferation inhibitory activity against A431 cells that depends on the EGFR proliferation signaling and the cell proliferation inhibitory activity against TMD8 cells that depends on the BTK proliferation signaling, the influence of the respective kinases at a cellular level is able to be evaluated. That is, when the “A431 cell proliferation inhibition ratio/TMD8 cell proliferation inhibition ratio” is calculated, it is contemplated that as the value of the ratio is larger, the selectivity to BTK over EGFR in the cells is higher.
# [1] = target: purified recombinant human BTK protein (Homo sapiens (Human), UniProt Q06187); test: Measurement of BTK inhibitory activity (in vitro); format: biochemical; conditions: FL-PEPTIDE 2 substrate 1 μM, ATP 45 μM, 40 minutes at 25° C.
# purified recombinant human BTK protein, sequence (Q06187 whole entry): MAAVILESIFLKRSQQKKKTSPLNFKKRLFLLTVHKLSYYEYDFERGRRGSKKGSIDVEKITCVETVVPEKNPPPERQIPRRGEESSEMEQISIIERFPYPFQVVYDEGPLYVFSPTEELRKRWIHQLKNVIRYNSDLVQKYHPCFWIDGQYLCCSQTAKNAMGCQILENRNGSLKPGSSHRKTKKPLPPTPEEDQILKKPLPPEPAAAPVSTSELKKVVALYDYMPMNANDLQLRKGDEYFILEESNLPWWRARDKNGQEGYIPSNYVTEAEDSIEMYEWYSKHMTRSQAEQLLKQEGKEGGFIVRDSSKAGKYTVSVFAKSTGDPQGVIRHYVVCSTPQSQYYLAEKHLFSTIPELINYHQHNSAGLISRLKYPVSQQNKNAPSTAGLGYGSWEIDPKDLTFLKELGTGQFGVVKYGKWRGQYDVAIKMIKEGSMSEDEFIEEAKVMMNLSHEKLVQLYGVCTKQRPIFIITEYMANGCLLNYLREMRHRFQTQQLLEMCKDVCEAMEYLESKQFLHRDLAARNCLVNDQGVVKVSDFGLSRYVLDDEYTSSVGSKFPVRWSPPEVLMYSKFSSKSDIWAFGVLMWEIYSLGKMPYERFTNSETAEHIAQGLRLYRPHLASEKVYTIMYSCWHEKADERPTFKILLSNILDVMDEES
# Description: With regard to the setting of the conditions for a method for measuring the inhibitory activity of a compound against BTK kinase activity in vitro, it is described in the consumable reagent supplies price list for LabChip (registered trademark) series of PerkinElmer, Inc. that FL-PEPTIDE 2 corresponds to a substrate peptide for the measurement of BTK kinase activity. Therefore, FL-PEPTIDE 2 was used as a substrate. The purified recombinant human BTK protein used in the test was purchased from Carna Biosciences, Inc.
# With regard to the measurement of the inhibitory activity of the compounds, firstly, the compounds of the present invention were diluted stepwise with dimethyl sulfoxide (DMSO). Subsequently, BTK protein, a substrate peptide (final concentration was 1 μM), magnesium chloride (final concentration was 10 mM), ATP (final concentration was 45 μM), and a DMSO solution of the compounds of the present invention (final concentration of DMSO was 5%) were added to a buffer solution for kinase reaction (20 mM HEPES (pH 7.5), 2 mM dithiotheitol, 0.01% Triton X-100), and after the solution was incubated for 40 minutes at 25° C., a kinase reaction was carried out. The reaction was terminated by adding EDTA thereto in order to obtain a final concentration of 30 mM. Finally, a substrate peptide that was not phosphorylated (S) and a phosphorylated peptide (P) were separated and detected by microchannel capillary electrophoresis using a LabChip EZ Reader II (PerkinElmer, Inc.).
# [2] = test system: purified recombinant human EGFR protein / BTK; test: BTK inhibition selectivity compared with EGFR kinase inhibitory activity (in vitro); format: biochemical; conditions: EGFR assay ATP 1.5 μM
# Protocol: 1) Measurement of BTK Inhibitory Activity
# 2) Measurement of EGFR Inhibitory Activity
# Therefore, a biotinated peptide (biotin-[…]) was produced by referring to the amino acid sequence of the peptide. The purified recombinant human EGFR protein used in the test was purchased from Carna Biosciences, Inc.
# With regard to the measurement of the inhibitory activity of the compounds, firstly, the compounds of the present invention were diluted stepwise with dimethyl sulfoxide (DMSO). […] The reaction was terminated by adding EDTA thereto in order to obtain a final concentration of 24 mM. Subsequently, a detection liquid containing Eu-labeled anti-phosphorylated tyrosine antibody PT66 (PerkinElmer, Inc.) and […] APC-SA (PerkinElmer, Inc.) was added thereto, and the system was left to stand for 2 hours or longer at room temperature.
# 3) BTK Inhibition Selectivity
SMILES,IC50 [1],EGFR inhibitory activity IC50 value (nM)/BTK inhibitory activity IC50 value (nM) [2],A431 cell proliferation inhibition ratio/TMD8 cell proliferation inhibitio ratio (A431 cells / TMD8 cells)
"C=CC(=O)N1CCC[C@@H](n2nc(C(=O)Nc3nc4c(C)cccc4o3)c3c(N)ncnc32)C1 [Example 10, (R)-1-(1-acryloylpiperidin-3-yl)-4-amino-N-(4-methylbenzo[d]oxazol-2-yl)-1H-pyrazolo[3,4-d]pyrimidine-3-carboxamide]",2.38 nM,,5860.5
"C=CC(=O)N1CC[C@@H](n2nc(C(=O)Nc3nc4cc(-c5cccs5)ccc4o3)c3c(N)ncnc32)C1 [Example 28, (R)-1-(1-acryloylpyrrolidin-3-yl)-4-amino-N-(5-(thiophen-2-yl)benzo[d]oxazol-2-yl)-1H-pyrazolo[3,4-d]pyrimidine-3-carboxamide]",0.559 nM,,2040.3
"C=CC(=O)N1CC[C@@H](n2nc(C(=O)Nc3nc4cc(C)ccc4o3)c3c(N)ncnc32)C1 [Example 29, (R)-1-(1-acryloylpyrrolidin-3-yl)-4-amino-N-(5-methylbenzo[d]oxazol-2-yl)-1H-pyrazolo[3,4-d]pyrimidine-3-carboxamide]",0.485 nM,,1243.4
"C=CC(=O)N1CC(n2cc(C(=O)Nc3nc4cc(Cl)ccc4o3)c3c(N)ncnc32)C1 [Example 46, 7-(1-acryloylazetidin-3-yl)-4-amino-N-(5-chlorobenzo[d]oxazol-2-yl)-7H-pyrrolo[2,3-d]pyrimidine-5-carboxamide]",3.27 nM,,7662.2
"C=CC(=O)N1CC[C@@H](n2cc(C(=O)Nc3nc4cc(Cl)ccc4o3)c3c(N)ncnc32)C1 [Example 48, (R)-7-(1-acryloylpyrrolidin-3-yl)-4-amino-N-(5-chlorobenzo[d]oxazol-2-yl)-7H-pyrrolo[2,3-d]pyrimidine-5-carboxamide]",0.836 nM,,2496.4
"CC(C)N(C)C/C=C/C(=O)N1CC[C@@H](n2cc(C(=O)Nc3nc4cc(-c5ccccc5)ccc4o3)c3c(N)ncnc32)C1 [Example 59, (R,E)-4-amino-N-(5-phenylbenzo[d]oxazol-2-yl)-7-(1-(4-(isopropyl(methyl)amino)but-2-enoyl)pyrrolidin-3-yl) 7H-pyrrolo[2,3-d]pyrimidine-5-carboxamide]",1.51 nM,16.3,
"C=CC(=O)N1CCC(Cn2nc(C(=O)Nc3nc4ccccc4o3)c3c(N)ncnc32)C1 (stereo not drawn) [Example 66, 1-((1-acryloylpyrrolidin-3-yl)methyl)-4-amino-N-(benzo[d]oxazol-2-yl)-1H-pyrazolo[3,4-d]pyrimidine-3-carboxamide]",17 nM,,>1205.7
"C=CC(=O)NCCCn1nc(C(=O)Nc2nc3ccccc3o2)c2c(N)ncnc21 [Example 85, 1-(3-acrylamidopropyl)-4-amino-N-(benzo[d]oxazol-2-yl)-1H-pyrazolo[3,4-d]pyrimidine-3-carboxamide]",,11.0,

# Continued, in another order:
IC50 [1],EGFR inhibitory activity IC50 value (nM)/BTK inhibitory activity IC50 value (nM) [2],SMILES,A431 cell proliferation inhibition ratio/TMD8 cell proliferation inhibitio ratio (A431 cells / TMD8 cells)
0.464 nM,,"C=CC(=O)N1CCC[C@@H](n2nc(C(=O)Nc3nc4cc(Br)ccc4o3)c3c(N)ncnc32)C1 [Example 2, (R)-1-(1-acryloylpiperidin-3-yl)-4-amino-N-(5-bromobenzo[d]oxazol-2-yl)-1H-pyrazolo[3,4-d]pyrimidine-3-carboxamide]",>1033.6
0.888 nM,929.2,"C=C(C)C(=O)N1CCC[C@@H](n2nc(C(=O)Nc3nc4cc(Cl)ccc4o3)c3c(N)ncnc32)C1 [Example 4, (R)-4-amino-N-(5-chlorobenzo[d]oxazol-2-yl)-1-(1-methacryloylpiperidin-3-yl)-1H-pyrazolo[3,4-d]pyrimidine-3-carboxamide]",
1.25 nM,241.0,"C/C=C/C(=O)N1CCC[C@@H](n2nc(C(=O)Nc3nc4cc(Cl)ccc4o3)c3c(N)ncnc32)C1 [Example 5, (R,E)-4-amino-N-(5-chlorobenzo[d]oxazol-2-yl)-1-(1-(but-2-enoyl)piperidin-3-yl)-1H-pyrazolo[3,4-d]pyrimidine-3-carboxamide]",
1.58 nM,,"C=CC(=O)N1CCC[C@@H](n2nc(C(=O)Nc3nc4cc(C)c(C)cc4o3)c3c(N)ncnc32)C1 [Example 23, (R)-1-(1-acryloylpiperidin-3-yl)-4-amino-N-(5,6-dimethylbenzo[d]oxazol-2-yl)-1H-pyrazolo[3,4-d]pyrimidine-3-carboxamide]",>10680
0.591 nM,,"C=CC(=O)N1CC[C@@H](n2nc(C(=O)Nc3nc4cc(Cl)ccc4o3)c3c(N)ncnc32)C1 [Example 24, (R)-1-(1-acryloylpyrrolidin-3-yl)-4-amino-N-(5-chlorobenzo[d]oxazol-2-yl)-1H-pyrazolo[3,4-d]pyrimidine-3-carboxamide]",3266.5
2.79 nM,642.8,"CC(C)=CC(=O)N1CC[C@@H](n2nc(C(=O)Nc3nc4cc(Cl)ccc4o3)c3c(N)ncnc32)C1 [Example 26, (R,E)-4-amino-N-(5-chlorobenzo[d]oxazol-2-yl)-1-(1-(3-methylbut-2-enoyl)pyrrolidin-3-yl)-1H-pyrazolo[3,4-d]pyrimidine-3-carboxamide]",
0.867 nM,59.8,"Nc1ncnc2c1c(C(=O)Nc1nc3cc(Cl)ccc3o1)nn2[C@@H]1CCN(C(=O)/C=C/CN2CCCC2)C1 [Example 36, (R,E)-4-amino-N-(5-chlorobenzo[d]oxazol-2-yl)-1-(1-(4-(pyrrolidin-1-yl)but-2-enoyl)pyrrolidin-3-yl)-1H-pyrazolo[3,4-d]pyrimidine-3-carboxamide]",
0.786 nM,70.5,"Nc1ncnc2c1c(C(=O)Nc1nc3cc(Cl)ccc3o1)nn2[C@@H]1CCN(C(=O)/C=C/CN2CCCCC2)C1 [Example 37, (R,E)-4-amino-N-(5-chlorobenzo[d]oxazol-2-yl)-1-(1-(4-(piperidin-1-yl)but-2-enoyl)pyrrolidin-3-yl)-1H-pyrazolo[3,4-d]pyrimidine-3-carboxamide]",
1.34 nM,17.6,"CN(C)C/C=C/C(=O)N1CC[C@@H](n2cc(C(=O)Nc3nc4cc(-c5ccccc5)ccc4o3)c3c(N)ncnc32)C1 [Example 56, (R,E)-4-amino-N-(5-phenylbenzo[d]oxazol-2-yl)-7-(1-(4-(dimethylamino)but-2-enoyl)pyrrolidin-3-yl) 7H-pyrrolo[2,3-d]pyrimidine-5-carboxamide]",
1.51 nM,19.3,"CCN(C)C/C=C/C(=O)N1CC[C@@H](n2cc(C(=O)Nc3nc4cc(-c5ccccc5)ccc4o3)c3c(N)ncnc32)C1 [Example 57, (R,E)-4-amino-N-(5-phenylbenzo[d]oxazol-2-yl)-7-(1-(4-(ethyl(methyl)amino)but-2-enoyl)pyrrolidin-3-yl) 7H-pyrrolo[2,3-d]pyrimidine-5-carboxamide]",
,20.6,"C=CC(=O)N1CC(n2nc(C(=O)Nc3nc4cc(F)ccc4o3)c3c(N)ncnc32)C1 [Example 79, 1-(1-acryloylazetidin-3-yl)-4-amino-N-(5-fluorobenzo[d]oxazol-2-yl)-1H-pyrazolo[3,4-d]pyrimidine-3-carboxamide]",
